# Numbers after ± are expanded uncertainties.
# How the values were obtained:
# [1] = Molar enthalpy of transition or fusion; conditions: Crystal; DSC
# [2] = Crystal
SMILES,Molar enthalpy of transition or fusion [1],Normal melting temperature [2],Normal melting temperature ([2]; DTA)
CCCCCCCCCCC(C)=O [2-dodecanone],9.44 ± 0.201 kcal/mol,21 ± 0.6 °C,21.12 ± 0.39 °C
CCCCCC(C)=O [2-heptanone],4.56 ± 0.108 kcal/mol,-36 ± 0.6 °C,-36.6 ± 0.4 °C
CCCCCCCC(C)=O [2-nonanone],6.54 ± 0.146 kcal/mol,-9.8 ± 0.6 °C,-9.47 ± 0.39 °C

# Continued, values first:
Molar enthalpy of transition or fusion [1],Normal melting temperature [2],Normal melting temperature ([2]; DTA),SMILES
10.5 ± 0.222 kcal/mol,27.7 ± 0.6 °C,28.60 ± 0.39 °C,CCCCCCCCCCCC(C)=O [2-tridecanone]
,11.7 ± 0.6 °C,12.11 ± 0.39 °C,CCCCCCCCCC(C)=O [2-undecanone]
7.5 ± 0.165 kcal/mol,6.4 ± 0.6 °C,,CCCCCCCCCCO [decan-1-ol]
9.02 ± 0.194 kcal/mol,23.5 ± 0.6 °C,,CCCCCCCCCCCCO [dodecan-1-ol]
5.66 ± 0.129 kcal/mol,-14.5 ± 0.6 °C,,CCCCCCCCO [octan-1-ol]
